This experiment deals with mESC Bmi1-luciferase reporter, firefly/renilla ratio, 24 h. Kind of experiment: compounds raising Bmi1 reporter signal – mouse embryonic stem cells, luciferase, cherry-pick, esBAF inhibitor project, dose response (AID 651717).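 Also: luciferase knocked into Bmi1 locus with EF-1a renilla as cell number control; rising ratio signals esBAF inhibition which derepresses Bmi1.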
Regarding `C=CCn1c(NCc2ccc(OC)cc2O)nc2ccccc21`, the AC40 was 5.58 µM.

As for `NC(=O)c1ccc(CSc2nc3ccccc3s2)cc1`, the AC40 is 4.64 µM.

Consider `NC(N)=NC(=O)c1nc(Cl)c(N2CCCCCC2)nc1N`, for which the AC40 was 3.13 µM.

On to `COc1ccc(NC(=O)c2ccc3ccccc3c2OC)cc1`, for which the AC40 was 2.56 µM.

Turning to `COC(=O)c1sccc1NC(=O)c1ccc(OC)cc1`, the AC40 was 6.81 µM.

`Cc1ccc(-c2nc3ccccc3[nH]2)cn1`: the AC40 is 3.49 µM.

As to `CC1CCCC(C)N1CCCNC(=O)c1ccc2nc(N3CCCCC3)sc2c1` (stereo unspecified), the AC40 was 9 µM.

For the compound `Cc1ccc(C(=O)N2CCc3ccccc32)cc1C`, the AC40 is 3.55 µM.

`CCCCN1C(=S)NC[C@@H]1Cc1cccc2ccccc12`: the AC40 was 17.3 µM.

For `Cc1ccc(C(=O)Nc2cccc(O)c2)cc1S(=O)(=O)N1CCCCCC1`, the AC40 was 14.5 µM.

On to `Cc1cc2oc(=O)cc(CN3CCC(C)CC3)c2cc1Cl`, for which the AC40 was 9.54 µM.

With `Cc1ccc(S(=O)(=O)N(C)CC(=O)Nc2cc(C)ccn2)cc1`, the AC40 was 9.84 µM.

For the compound `CCCS(=O)(=O)N1CCC(C(=O)NC2CCC(C)CC2)CC1` (stereo unspecified), the AC40 is 3.19 µM.

In the case of `CO[C@H]1CN(C)C(=O)c2cc(NC(=O)Nc3ccc4c(c3)OCO4)ccc2OC[C@H](C)NC[C@@H]1C`, the AC40 was 13.2 µM.

For the compound `Cc1ccc(NC(=O)Nc2ccc(F)cc2)cc1Cl`, the AC40 was 3.4 µM.

With `Cc1ccc(-c2ccc(CCC(=O)O)n2-c2cccc(O)c2)cc1`, the AC40 was 10.1 µM.

Take `COc1cccc(N(C(=O)c2cccs2)c2nc3ccccc3s2)c1`: the AC40 is 3.76 µM.

`Cc1ccnc(NC(=O)CCCc2ccccc2)c1`: the AC40 is 5.74 µM.

As for `Cc1ccc(NC(=O)Nc2ccc(F)c(Cl)c2)cc1`, the AC40 is 1.85 µM.

Regarding `CC(=O)Nc1ccc2nc(SCC(=O)Nc3ccc(N4CCOCC4)c(Cl)c3)sc2c1`, the AC40 is 3.57 µM.

As to `Oc1[nH]c2ccccc2c1/C=N/c1nccs1`, the AC40 was 4.59 µM.

Turning to `Cc1cccc(OCc2nc3ccccc3c(=O)n2N)c1`, the AC40 was 7.24 µM.

In the case of `CCCCSc1nnc(-c2ccc(OC)cc2)n1C`, the AC40 is 9.08 µM.

Take `Cc1cc(N2CCOCC2)nc2ccc(NC(=O)CCC(=O)N3CCN(c4ccccc4)CC3)cc12`: the AC40 was 11 µM.

Take `O=C(NC1CCCCCCC1)c1cccc(Cl)c1`: the AC40 was 10.7 µM.

In the case of `CCOc1ccc2nc(NC(=O)CSc3nnc(-c4ccncc4)n3CC3CCCO3)sc2c1` (stereo unspecified), the AC40 was 7.34 µM.

For the compound `Cc1cc(C)c2c(CN(C)Cc3ccccc3)cc(=O)oc2c1`, the AC40 was 4.9 µM.

Regarding `Cc1cccc(NC(=O)Nc2cccc(F)c2)n1`, the AC40 is 8.39 µM.

On to `Cc1cc(Cl)nc(NC(=O)Nc2cccc(Cl)c2)n1`, for which the AC40 was 0.66 µM.

Consider `CCOC(=O)C1=C(CSc2nc(-c3ccccc3)ccc2C#N)OC(N)=C(C#N)C1c1ccc(OC)cc1` (stereo unspecified), for which the AC40 was 6.12 µM.

For `CCCc1cc(C(=O)Nc2cc(Br)ccc2O)no1`, the AC40 is 8.53 µM.

As to `OC(c1cccc(F)c1)c1ncc(-c2ccc3ccccc3c2)[nH]1` (stereo unspecified), the AC40 is 9.76 µM.

For the compound `Cc1nc(-c2ccc(Cl)cc2)sc1C1(C)CC(c2cccnc2)=NO1` (stereo unspecified), the AC40 was 5.57 µM.

Consider `Cc1cccc(Nc2nc(-c3sc(C)nc3C)cs2)c1`, for which the AC40 is 2.71 µM.

`COc1ccc(CNC(=O)COc2ccccc2C(=O)c2cnn(-c3ccccc3)c2)cc1OC`: the AC40 is 0.642 µM.

Regarding `Oc1ccc(-c2cccc(-c3ccc(O)cc3)c2)cc1`, the AC40 was 6.78 µM.

As to `COc1ccc(-n2nc(C(=O)NCC(=O)N3CCN(c4ccccc4)CC3)c3ccccc3c2=O)cc1OC`, the AC40 is 7.98 µM.

For the compound `CCn1c(SCc2ccccc2Cl)nc2ccccc21`, the AC40 is 5.49 µM.

Take `O=c1cc(-c2ccsc2)oc2ccc(-c3ccc4cc[nH]c4c3)cc12`: the AC40 was 9.01 µM.

Turning to `O=C(Nc1ccccn1)c1c(O)c2cccc3c2n(c1=O)CCC3`, the AC40 was 18.4 µM.

Consider `O=C(NCCO)c1cccc(-c2cnc3c(Nc4cccc(OC(F)(F)C(F)F)c4)nccn23)c1`, for which the AC40 was 4.46 µM.

In the case of `O=C(O)c1ccc(N/N=C/c2cccc3nccnc23)cc1`, the AC40 was 4.04 µM.

Turning to `C=CCn1cccc(C(=O)Nc2ccc(Cl)cc2)c1=O`, the AC40 was 3.88 µM.

Consider `O=C(Nc1ccc(F)cc1)c1ccccc1`, for which the AC40 was 7.36 µM.

On to `CCn1c(COc2ccccc2)nc2ccccc21`, for which the AC40 was 22 µM.

`Cc1cc(C)c2nc(-c3ccccc3)ccc2c1`: the AC40 is 1.5 µM.

In the case of `COc1ccc(C(=O)Nc2cc3c4c(c2)CC(=O)N4CCC3)c(OC)c1`, the AC40 is 5.13 µM.

With `COc1cccc(NC(=O)N2CCc3nc(Nc4ccc(C(C)C)cc4)ncc3C2)c1`, the AC40 is 29.9 µM.

Consider `CC(C)(C)c1ccc(C(=O)c2cn[nH]c2-c2ccccc2O)cc1`, for which the AC40 was 7.24 µM.

For the compound `Cc1ccc(O)c(N=Cc2ccc(C)s2)c1`, the AC40 was 25.8 µM.

For the compound `c1ccc2c(c1)Nc1cc3ccccc3cc1O2`, the AC40 was 4.66 µM.

As for `COc1ccccc1/C=C/C=N/n1c(-c2ccccn2)n[nH]c1=S`, the AC40 is 9.01 µM.

`O=C(c1c(F)cccc1F)N1CCCC(c2nc(-c3cccs3)no2)C1` (stereo unspecified): the AC40 was 11.8 µM.

Consider `CCN(CC)C(=O)OCc1c(-c2ccccc2)ncc2ccccc12`, for which the AC40 was 2.25 µM.

For `Cc1ccc(C)c(N2CCN(C(=O)CCc3nc(-c4cccc(Cl)c4)no3)CC2)c1`, the AC40 is 2.83 µM.

For `CN(C)c1ccc(-c2csc(C(O)c3ccccc3)n2)cc1` (stereo unspecified), the AC40 was 0.311 µM.

Regarding `CC(=O)Nc1ccc(-c2nc3c(C)cccc3[nH]2)cc1`, the AC40 is 1.25 µM.

As for `COc1ccc(OCc2cc(C(=O)NC(C)c3csc(C)n3)no2)c(Cl)c1` (stereo unspecified), the AC40 was 4.18 µM.

Consider `Nc1nc(-c2cccc(F)c2)cs1`, for which the AC40 was 6.13 µM.

In the case of `COc1cccc(NC(=O)C(=O)NCCC2CCCCN2S(=O)(=O)c2cccs2)c1` (stereo unspecified), the AC40 was 3.86 µM.

With `Cn1c(CSc2ccccc2)c(C#N)c2ccccc21`, the AC40 was 6.77 µM.

Take `O=C(Nc1ccc(-c2cnco2)cc1)c1ccc(F)cc1F`: the AC40 is 4.28 µM.

Turning to `O=C(NCCc1ccc(F)cc1)c1ccc2c(=O)n3c(nc2c1)CCC3`, the AC40 was 5.89 µM.

Regarding `COc1ccc(-c2cc(C(=O)N3CCN(c4ccccc4O)CC3)c3ccccc3n2)cc1`, the AC40 was 3.16 µM.

With `N#CC(c1ccccc1O)N1N=C(c2ccccc2)CC1c1ccccc1` (stereo unspecified), the AC40 was 1.43 µM.

Turning to `CO[C@H]1CN(C)C(=O)c2ccc(NC(=O)Nc3ccc4c(c3)OCO4)cc2OC[C@@H](C)NC[C@H]1C`, the AC40 is 3.55 µM.

Take `c1ccc(-n2nnc3ccccc32)nc1`: the AC40 was 11.2 µM.

With `O=C(NCCc1ccccc1)c1ccc(Cl)c(S(=O)(=O)N2CCCC2)c1`, the AC40 was 8.04 µM.

As for `O/N=C\c1cnc(N2CCN(c3ccccc3)CC2)s1`, the AC40 is 2.47 µM.

As for `COc1ccc(-n2nc(C(=O)NCC(=O)N3CCN(c4ccccc4F)CC3)c3ccccc3c2=O)cc1`, the AC40 is 1.22 µM.

Regarding `COc1ccc(NC(=O)CCC(=O)Nc2ccc3nc(N4CCOCC4)cc(C)c3c2)c(OC)c1`, the AC40 was 6.04 µM.

On to `Clc1ccc(-c2cn3cccnc3n2)cc1Cl`, for which the AC40 was 3.56 µM.

With `O=C(Nc1ccc(Cl)c(Cl)c1)c1ccncc1`, the AC40 is 6.32 µM.

For the compound `COc1ccc2cc(C(=O)N(C)CC(=O)Nc3ccccc3Br)ccc2c1`, the AC40 is 5.86 µM.

For the compound `Cc1cccc(NC(=O)c2ccccn2)c1C`, the AC40 was 3.69 µM.

Take `CCCC1c2ccc(C)n2CCN1C(=O)Nc1ccccc1Cl` (stereo unspecified): the AC40 was 6.07 µM.

The values above are taken from PubChem BioAssay AID651717 (Broad Institute, 2012).
